Test results: paper PMC9944328 (Nature Communications, 2023)
Where two headings read alike, the source gives them in different places.

Legend:
[1] = system: GH3 cells; assay: Cell apoptosis assay, Annexin V-FITC/PI flow cytometry, GH3 cells overexpressing SSTR2, 48 h; format: cell-based, rat
Description: The rat pituitary GH3 cells (ATCC, CCL-82.1) were seeded in 12-well plates at 1.5 × 10^5/well. […] Then, the cells were collected for the apoptosis assay according to the instruction of the Annexin V-FITC/PI apoptosis detection kit (BD Biosciences). Briefly, the cells were washed with cold PBS and resuspended in 1 × binding buffer. Then, 5 μl of Annexin V-FITC was added and incubated for 10 min and stained with 5 μl of PI for 5 min in the dark at room temperature. All samples were acquired by a Novocyte flow cytometer (ACEA Biosciences, China), and data were analyzed with NovoExpress^TM software.

[2] = system: SSTR2 mutants; assay: Bystander BRET endosomal trafficking (β-arrestin 1-Nluc, FYVE-mVenus), HEK293 (SSTR2 mutants); settings: for Fold of WT: Bystander BRET EC50;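 for all read-outs here: Read-out is the BRET ratio between Nluc-fused β-arrestin 1 and the early endosome marker FYVE-mVenus, measured after ligand addition with coelenterazine h as substrate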
Description: (§1) Wild-type or mutant SSTR2, β-arrestin 1-Nluc and FYVE-mVenus were co-transfected in HEK293 cells at a ratio of 1:0.5:4 on six-well plates. The next day, the transfected cells were plated on white 96-well and incubated overnight, and then cells were incubated with 90 µL HBSS containing 20 mM HEPES and coelenterazine h (5 µM) at room temperature for 40 min. After incubation, ligand was added and the signal was measured using the Synergy H1 microplate reader (BioTek) to determine a BRET ratio.

[3] = biological target: SSTR2 mutants (Homo sapiens, UniProt P30874, I130A); assay: as above
Description: as §1

[4] = biological target: SSTR2 mutants (Homo sapiens, UniProt P30874, I284A); assay: as above; settings: for Bottom: best-fit value
Description: as §1

[5] = biological target: SSTR2 mutants (Homo sapiens, UniProt P30874, P220A); assay: as above
Description: as §1

[6] = biological target: SSTR2 mutants (Homo sapiens, UniProt P30874, K291A); assay: as above; settings: for Bottom: best-fit value
Description: as §1

[7] = biological target: SSTR2 mutants (Homo sapiens, UniProt P30874, R140A); assay: as above
Description: as §1

[8] = biological target: SSTR2 mutants (Homo sapiens, UniProt P30874, W269A); assay: as above
Description: as §1

[9] = biological target: SSTR2 mutants (Homo sapiens, UniProt P30874, Y312A); assay: as above
Description: as §1

[10] = biological target: SSTR2 mutants (Homo sapiens, UniProt P30874, F265A); assay: as above
Description: as §1

[11] = best-fit value, F265A-1 (run 1)
[12] = best-fit value, F265A-2 (run 2)
[13] = best-fit value, F265A-3 (run 3)
[14] = best-fit value, F294A-1 (run 1)
[15] = best-fit value, F294A-2 (run 2)
[16] = best-fit value, F294A-3 (run 3)
[17] = best-fit value, I284A-1 (run 1)
[18] = best-fit value, I284A-2 (run 2)
[19] = best-fit value, I284A-3 (run 3)
[20] = best-fit value, K291A-1 (run 1)
[21] = best-fit value, K291A-2 (run 2)
[22] = best-fit value, K291A-3 (run 3)
[23] = best-fit value, N276A-1 (run 1)
[24] = best-fit value, N276A-2 (run 2)
[25] = best-fit value, N276A-3 (run 3)

Sequence of SSTR2 mutants (Homo sapiens, UniProt P30874, I130A) (P30874 whole entry I130A): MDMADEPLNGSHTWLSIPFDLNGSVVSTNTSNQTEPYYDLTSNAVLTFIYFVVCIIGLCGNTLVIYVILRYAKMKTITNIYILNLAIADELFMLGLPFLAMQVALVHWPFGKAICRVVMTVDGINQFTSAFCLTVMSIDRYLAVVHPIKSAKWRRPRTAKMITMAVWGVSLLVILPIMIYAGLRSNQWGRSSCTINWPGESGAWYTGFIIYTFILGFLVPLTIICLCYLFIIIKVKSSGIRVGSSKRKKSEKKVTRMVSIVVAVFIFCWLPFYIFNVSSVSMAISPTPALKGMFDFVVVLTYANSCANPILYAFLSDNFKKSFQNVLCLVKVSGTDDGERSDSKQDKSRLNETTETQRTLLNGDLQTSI
Sequence of SSTR2 mutants (Homo sapiens, UniProt P30874, P220A) (P30874 whole entry P220A): as the sequence (P30874 whole entry I130A) above, with A130I, P220A counted along it
Sequence of SSTR2 mutants (Homo sapiens, UniProt P30874, F265A) (P30874 whole entry F265A): as the sequence (P30874 whole entry I130A) above, with A130I, F265A counted along it
Sequence of SSTR2 mutants (Homo sapiens, UniProt P30874, Y312A) (P30874 whole entry Y312A): as the sequence (P30874 whole entry I130A) above, with A130I, Y312A counted along it
Sequence of SSTR2 mutants (Homo sapiens, UniProt P30874, I284A) (P30874 whole entry I284A): as the sequence (P30874 whole entry I130A) above, with A130I, I284A counted along it
Sequence of SSTR2 mutants (Homo sapiens, UniProt P30874, W269A) (P30874 whole entry W269A): as the sequence (P30874 whole entry I130A) above, with A130I, W269A counted along it
Sequence of SSTR2 mutants (Homo sapiens, UniProt P30874, K291A) (P30874 whole entry K291A): as the sequence (P30874 whole entry I130A) above, with A130I, K291A counted along it
Sequence of SSTR2 mutants (Homo sapiens, UniProt P30874, R140A) (P30874 whole entry R140A): as the sequence (P30874 whole entry I130A) above, with A130I, R140A counted along it

With `N#Cc1cccc(-c2ccc3ncc(-c4cc(F)cc(F)c4)c(N4CCC(N)CC4)c3c2)c1O` [paltusotine] the “Apoptotic rate versus octreotide” value [1] was “increased apoptotic rate”, the Proapoptotic activity [1] was “able to activate proapoptotic pathways” and the “Fold of WT” value ([2]; SSTR2 F294(7.35)A) was 17.12. For the same compound, the “Fold of WT” value ([2]; SSTR2 I284ECL3A) was 0.73, the “Fold of WT” value ([2]; SSTR2 K291(7.32)A) was 0.73 and the “Fold of WT” value ([2]; SSTR2 N276(6.55)A) was 1.19. The “Fold of WT” value ([2]; SSTR2 W269(6.48)A) was 1.06, the “LogEC50 (best-fit)” value ([2]; I130A-1 (run 1)) was ~ -2.099 and the “Span (best-fit)” value ([2]; I130A-1 (run 1)) was ~ 8554. For the same compound, the “Top (best-fit)” value ([2]; I130A-1 (run 1)) was ~ 8552, the “LogEC50 (best-fit)” value ([2]; I130A-2 (run 2)) was -9.856 and the “Span (best-fit)” value ([2]; I130A-2 (run 2)) was -10.4. The “Top (best-fit)” value ([2]; I130A-2 (run 2)) was -9.472, the “LogEC50 (best-fit)” value ([2]; I130A-3 (run 3)) was -9.469 and the “Span (best-fit)” value ([2]; I130A-3 (run 3)) was 2.038. For the same compound, the “Top (best-fit)” value ([2]; I130A-3 (run 3)) was -0.7545, the “LogEC50 (best-fit)” value ([2]; P220A-1 (run 1)) was -6.735 and the “Span (best-fit)” value ([2]; P220A-1 (run 1)) was 12.69. For the same compound, the “Top (best-fit)” value ([2]; P220A-1 (run 1)) was 13.21, the “LogEC50 (best-fit)” value ([2]; P220A-2 (run 2)) was ~ -2.138 and the “Span (best-fit)” value ([2]; P220A-2 (run 2)) was ~ 22554. For the same compound, the “Top (best-fit)” value ([2]; P220A-2 (run 2)) was ~ 22557, the “LogEC50 (best-fit)” value ([2]; P220A-3 (run 3)) was -6.08 and the “Span (best-fit)” value ([2]; P220A-3 (run 3)) was 20.28. The “Top (best-fit)” value ([2]; P220A-3 (run 3)) was 17.78, the “LogEC50 (best-fit)” value ([2]; R140A-1 (run 1)) was -8.331 and the “Span (best-fit)” value ([2]; R140A-1 (run 1)) was 51.38. For the same compound, the “Top (best-fit)” value ([2]; R140A-1 (run 1)) was 50.75, the “LogEC50 (best-fit)” value ([2]; R140A-2 (run 2)) was -8.178 and the “Span (best-fit)” value ([2]; R140A-2 (run 2)) was 55.99. For the same compound, the “Top (best-fit)” value ([2]; R140A-2 (run 2)) was 44.7, the “LogEC50 (best-fit)” value ([2]; R140A-3 (run 3)) was -8.181 and the “Span (best-fit)” value ([2]; R140A-3 (run 3)) was 61.6. For the same compound, the “Top (best-fit)” value ([2]; R140A-3 (run 3)) was 61.78, the “LogEC50 (best-fit)” value ([2]; W269A-1 (run 1)) was -6.886 and the “Span (best-fit)” value ([2]; W269A-1 (run 1)) was 28.05. For the same compound, the “Top (best-fit)” value ([2]; W269A-1 (run 1)) was 27.2, the “LogEC50 (best-fit)” value ([2]; W269A-2 (run 2)) was -6.322 and the “Span (best-fit)” value ([2]; W269A-2 (run 2)) was 26.76. For the same compound, the “Top (best-fit)” value ([2]; W269A-2 (run 2)) was 23, the “LogEC50 (best-fit)” value ([2]; W269A-3 (run 3)) was -6.81 and the “Span (best-fit)” value ([2]; W269A-3 (run 3)) was 22.83. The “Top (best-fit)” value ([2]; W269A-3 (run 3)) was 22.91, the “LogEC50 (best-fit)” value ([2]; Y312A-1 (run 1)) was -8.087 and the “Span (best-fit)” value ([2]; Y312A-1 (run 1)) was 42.16. The “Top (best-fit)” value ([2]; Y312A-1 (run 1)) was 41.34, the “LogEC50 (best-fit)” value ([2]; Y312A-2 (run 2)) was -7.939 and the “Span (best-fit)” value ([2]; Y312A-2 (run 2)) was 49.41. For the same compound, the “Top (best-fit)” value ([2]; Y312A-2 (run 2)) was 47.36, the “LogEC50 (best-fit)” value ([2]; Y312A-3 (run 3)) was -8.193 and the “Span (best-fit)” value ([2]; Y312A-3 (run 3)) was 41.16. The “Top (best-fit)” value ([2]; Y312A-3 (run 3)) was 41.43, the “Internalization of microswitch mutants” value ([2]; alanine substitution of microswitch residues) was “reduced receptor internalization” and the EC50 [2, 11] was 11.9 µM. It also gave a LogEC50 [2, 11] of -4.926, a Span [2, 11] of 10.7 and a Top [2, 11] of 10.68. The LogEC50 [2, 12] was -7.219, the Span [2, 12] was 0.6462 and the Top [2, 12] was -7.332. It also gave an EC50 [2, 13] of 14.7 µM, a LogEC50 [2, 13] of -4.832 and a Span [2, 13] of 19.35. The Top [2, 13] was 19.15, the EC50 [2, 14] was 2.09 µM and the LogEC50 [2, 14] was -5.679. For the same compound, the Span [2, 14] was 94.38, the Top [2, 14] was 95.1 and the EC50 [2, 15] was 1.28 µM. It also gave a LogEC50 [2, 15] of -5.892, a Span [2, 15] of 84.17 and a Top [2, 15] of 81.83. The EC50 [2, 16] was 1.57 µM, the LogEC50 [2, 16] was -5.803 and the Span [2, 16] was 87.18. The Top [2, 16] was 86.4, the EC50 [2, 17] was 0.0712 µM and the LogEC50 [2, 17] was -7.148. It also gave a Span [2, 17] of 95.18, a Top [2, 17] of 94.55 and an EC50 [2, 18] of 0.0841 µM. The LogEC50 [2, 18] was -7.075, the Span [2, 18] was 103.8 and the Top [2, 18] was 105.1. It also gave an EC50 [2, 19] of 0.0826 µM, a LogEC50 [2, 19] of -7.083 and a Span [2, 19] of 102.7. For the same compound, the Top [2, 19] was 102.8, the EC50 [2, 20] was 0.0357 µM and the LogEC50 [2, 20] was -7.448. It also gave a Span [2, 20] of 68.73, a Top [2, 20] of 69.72 and an EC50 [2, 21] of 0.0839 µM. For the same compound, the LogEC50 [2, 21] was -7.076, the Span [2, 21] was 87.08 and the Top [2, 21] was 83.73. The EC50 [2, 22] was 0.0302 µM, the LogEC50 [2, 22] was -7.52 and the Span [2, 22] was 76.1. The Top [2, 22] was 71.42, the EC50 [2, 23] was 0.14 µM and the LogEC50 [2, 23] was -6.855. It also gave a Span [2, 23] of 79.71, a Top [2, 23] of 79.77 and an EC50 [2, 24] of 0.11 µM. The LogEC50 [2, 24] was -6.96, the Span [2, 24] was 78.62 and the Top [2, 24] was 78.47. It also gave an EC50 [2, 25] of 0.1 µM, a LogEC50 [2, 25] of -7 and a Span [2, 25] of 73.41. It also gave a Top [2, 25] of 70.97, an EC50 ([2]; read-out: EC50 (best-fit), I130A-1 (run 1)) of roughly 7970 µM and an EC50 ([2]; read-out: EC50 (best-fit), I130A-2 (run 2)) of 0.000139 µM. The EC50 ([2]; read-out: EC50 (best-fit), I130A-3 (run 3)) was 0.00034 µM, the EC50 ([2]; read-out: EC50 (best-fit), P220A-1 (run 1)) was 0.184 µM and the EC50 ([2]; read-out: EC50 (best-fit), P220A-2 (run 2)) was roughly 7280 µM. For the same compound, the EC50 ([2]; read-out: EC50 (best-fit), P220A-3 (run 3)) was 0.831 µM, the EC50 ([2]; read-out: EC50 (best-fit), R140A-1 (run 1)) was 0.00467 µM and the EC50 ([2]; read-out: EC50 (best-fit), R140A-2 (run 2)) was 0.00664 µM. The EC50 ([2]; read-out: EC50 (best-fit), R140A-3 (run 3)) was 0.00659 µM, the EC50 ([2]; read-out: EC50 (best-fit), W269A-1 (run 1)) was 0.13 µM and the EC50 ([2]; read-out: EC50 (best-fit), W269A-2 (run 2)) was 0.476 µM. It also gave an EC50 ([2]; read-out: EC50 (best-fit), W269A-3 (run 3)) of 0.155 µM, an EC50 ([2]; read-out: EC50 (best-fit), Y312A-1 (run 1)) of 0.00818 µM and an EC50 ([2]; read-out: EC50 (best-fit), Y312A-2 (run 2)) of 0.0115 µM. For the same compound, the EC50 ([2]; read-out: EC50 (best-fit), Y312A-3 (run 3)) was 0.00641 µM, the “Bottom (best-fit)” value ([3]; I130A-1 (run 1)) was -1.998 and the “Bottom (best-fit)” value ([3]; I130A-2 (run 2)) was 0.9306. For the same compound, the “Bottom (best-fit)” value ([3]; I130A-3 (run 3)) was -2.793, the EC50 [4] was 0.0898 ± 0.00128 µM and the Emax ([4]; HEK293) was 106 ± 6.25%. The Bottom ([4]; I284A-1 (run 1)) was -0.6254, the Bottom ([4]; I284A-2 (run 2)) was 1.24 and the Bottom ([4]; I284A-3 (run 3)) was 0.1294. For the same compound, the “Bottom (best-fit)” value ([5]; P220A-1 (run 1)) was 0.5179, the “Bottom (best-fit)” value ([5]; P220A-2 (run 2)) was 2.929 and the “Bottom (best-fit)” value ([5]; P220A-3 (run 3)) was -2.504. For the same compound, the EC50 [6] was 0.0894 ± 0.00133 µM, the Emax ([6]; HEK293) was 86.8 ± 5.01% and the Bottom ([6]; K291A-1 (run 1)) was 0.9895. For the same compound, the Bottom ([6]; K291A-2 (run 2)) was -3.341, the Bottom ([6]; K291A-3 (run 3)) was -4.686 and the “Bottom (best-fit)” value ([7]; R140A-1 (run 1)) was -0.6263. For the same compound, the “Bottom (best-fit)” value ([7]; R140A-2 (run 2)) was -11.29, the “Bottom (best-fit)” value ([7]; R140A-3 (run 3)) was 0.1772 and the EC50 [8] was 0.13 ± 0.00165 µM. The Emax ([8]; HEK293) was 27.2 ± 2.61%, the “Bottom (best-fit)” value ([8]; W269A-1 (run 1)) was -0.847 and the “Bottom (best-fit)” value ([8]; W269A-2 (run 2)) was -3.759. For the same compound, the “Bottom (best-fit)” value ([8]; W269A-3 (run 3)) was 0.08484, the “Bottom (best-fit)” value ([9]; Y312A-1 (run 1)) was -0.8168 and the “Bottom (best-fit)” value ([9]; Y312A-2 (run 2)) was -2.056. For the same compound, the “Bottom (best-fit)” value ([9]; Y312A-3 (run 3)) was 0.2687, the “Bottom (best-fit)” value ([10]; F265A-1 (run 1)) was -0.01693 and the “Bottom (best-fit)” value ([10]; F265A-2 (run 2)) was -7.978. For the same compound, the “Bottom (best-fit)” value ([10]; F265A-3 (run 3)) was -0.1955.
